The results in this text go back to ChEMBL document CHEMBL1201862, “PubChem BioAssay data set” (2004).

What is called GI50 is the concentration giving 50% growth inhibition.

SMILES strings stand for the structures.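 All cell lines were grown in 96-well plates and treated with compound for 48 hours. GI50 = concentration required for 50% inhibition of growth.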 Activity calls are given as the source filed them. Rule as the data show it: active = GI50 up to about 1.1 µM and inactive = higher.

What all share (assay): DTP human tumour cell line panel, 48 h
Experiment [1] has as its system SK-MEL-2.
In experiment [2] the test system is M14.
Experiment [3] concerns LOX IMVI.
Experiment [4] relates to KM12.
The test system of experiment [5] is SF-268.
Experiment [6] deals with HOP-92.
Experiment [7] deals with OVCAR-4.
Experiment [8] deals with Malme-3M.
The test system of experiment [9] is MOLT-4.
The test system of experiment [10] is OVCAR-5.
In experiment [11] the test system is SK-MEL-28.
Experiment [12] has as its system A549.
In experiment [13] the test system is DMS-273.
The test system of experiment [14] is A498.
Experiment [15] has as its system SN12C.
Experiment [16] relates to U-251.
Experiment [17] has as its system SF-539.
Experiment [18] has as its system COLO 205.

Consider `CCOc1ccccc1Nc1nc(C)c(C(=O)CC(=O)C(=O)Nc2ccccc2)s1`, for which the GI50 in experiment [1] was 37.3 µM (inactive); in experiment [2], > 100 µM (inactive); in [3], 40.7 µM (inactive); in experiment [4] it was 45.6 µM (inactive); in [5], > 100 µM (inactive); in experiment [6] it was 36.6 µM (inactive). The GI50 in [7] was 11 µM (inactive); in experiment [8], > 100 µM (inactive); in experiment [9], 23.8 µM (inactive); in experiment [10], > 100 µM (inactive); in experiment [11], > 100 µM (inactive); in experiment [12], 62.8 µM (inactive). In addition, the GI50 in experiment [13] was 54.2 µM (inactive); in experiment [14] it was 88.5 µM (inactive); in experiment [15], 34.8 µM (inactive); in experiment [16] it was 36.6 µM (inactive); in [17] it was > 100 µM (inactive); in experiment [18], 49.3 µM (inactive).
Turning to `CCCCCCCCCC(=O)N[C@H]1CCc2cc(OC)c(OC)c(OC)c2-c2ccc(SC)c(=O)cc21`, the 50% growth inhibitory concentration (GI50) was 0.0226 µM (active) in [2]; 0.043 µM (active) in experiment [3]; 0.0209 µM (active) in experiment [4]; 0.0223 µM (active) in experiment [5]; 0.0168 µM (active) in [6]; 0.408 µM (active) in experiment [7]. Further, the GI50 in experiment [8] was 0.0226 µM (active); in experiment [9], 0.0392 µM (active); in experiment [10], 29.7 µM (inactive); in [12] it was 0.0376 µM (active); in [13] it was < 0.01 µM (active); in [14], 0.0255 µM (active). The 50% growth inhibitory concentration (GI50) was 0.0365 µM (active) in experiment [15], 0.0274 µM (active) in experiment [16], 0.0224 µM (active) in experiment [17] and 0.00345 µM (active) in [18].
In the case of `O=C(CN1CCN(c2ccccc2)CC1)N1CCc2c([nH]c3ccccc23)C1c1cccnc1` (centres undefined), the GI50 in experiment [1] was > 100 µM (inactive); in experiment [2], 54.2 µM (inactive); in experiment [3], > 73.1 µM (inactive); in experiment [4] it was 97.3 µM (inactive); in experiment [5], 39.1 µM (inactive); in [6] it was 20.2 µM (inactive). For the same molecule, the GI50 in experiment [7] was > 29.4 µM (inactive); in experiment [8], > 100 µM (inactive); in experiment [9], > 100 µM (inactive); in experiment [10], > 100 µM (inactive); in experiment [11], > 95.3 µM (inactive); in experiment [12], 31.6 µM (inactive). Further, the GI50 in experiment [13] is 49 µM (inactive); in [14] it was > 100 µM (inactive); in experiment [15], > 82.6 µM (inactive); in [16], 14.3 µM (inactive); in [17], 16.7 µM (inactive); in experiment [18], > 100 µM (inactive).
As for `Cn1c(=O)ccc2cc(C(=O)c3ccccc3)ccc21`, the GI50 in [1] is > 100 µM (inactive); in [2] it was > 100 µM (inactive); in experiment [3] it was 57.3 µM (inactive); in experiment [4], > 100 µM (inactive); in experiment [5], 76.6 µM (inactive); in [6] it was 34.8 µM (inactive). In addition, the GI50 was 46.9 µM (inactive) in [7]; > 100 µM (inactive) in experiment [8]; 69.7 µM (inactive) in experiment [9]; > 100 µM (inactive) in experiment [10]; > 100 µM (inactive) in experiment [11]; 71.1 µM (inactive) in experiment [12]. For the same molecule, the GI50 in experiment [13] is 35.3 µM (inactive); in experiment [14], 32.6 µM (inactive); in experiment [15], 46.6 µM (inactive); in experiment [16] it was 84.9 µM (inactive); in experiment [17], 42.3 µM (inactive); in [18], > 100 µM (inactive).
For the molecule `CCCCCCCCCCSS(=O)(=O)c1ccc(C)cc1`, the GI50 in experiment [1] was 5.01 µM (inactive); in experiment [2] it was 10.4 µM (inactive); in experiment [3], 4.45 µM (inactive); in experiment [4], 9.64 µM (inactive); in experiment [5] it was 6.12 µM (inactive); in experiment [6], 12.9 µM (inactive). The GI50 is 15.6 µM (inactive) in experiment [7]; 15.6 µM (inactive) in experiment [8]; 2.03 µM (inactive) in experiment [9]; 15.9 µM (inactive) in [10]; 3.39 µM (inactive) in [11]; 14.9 µM (inactive) in [12]. Moreover, the GI50 was 9.27 µM (inactive) in [13]; 18.5 µM (inactive) in [14]; 10.5 µM (inactive) in experiment [15]; 4 µM (inactive) in [16]; 1.87 µM (inactive) in experiment [17]; 14.1 µM (inactive) in experiment [18].
For the molecule `CC(=O)N1CCC2(C=Nc3ccccc32)CC1`, the GI50 in experiment [1], in experiment [2], in [3], in experiment [4], in experiment [6] and in experiment [7] was > 100 µM (inactive) throughout. For the same molecule, the GI50 in experiment [8], in experiment [9], in experiment [10], in experiment [11], in experiment [12] and in [13] was > 100 µM (inactive) in each case. In addition, the GI50 in experiment [14], in experiment [16], in [17] and in experiment [18] was > 100 µM (inactive) each time.
As for `OC1[C@H]([C@H]2CCCC[C@@H]2O)CCC[C@@H]1[C@@H]1CCCC[C@H]1O` (some centres undefined), the GI50 in [1], in [2], in experiment [3], in experiment [4], in experiment [5] and in [6] was > 100 µM (inactive) each time. Further, the GI50 in experiment [7], in [8], in experiment [9], in experiment [10], in experiment [11] and in [12] was > 100 µM (inactive) each time. Also, the GI50 in experiment [13], in experiment [14], in [15], in experiment [16], in experiment [17] and in experiment [18] was > 100 µM (inactive) each time.
As for `COC(=O)C1Cc2c([nH]c3ccccc23)[C@H](CC(C)C)N1` (some centres undefined), the GI50 in experiment [1], in experiment [2], in experiment [3], in [4], in [5] and in [6] was > 100 µM (inactive) each time. Further, the GI50 in [8], in experiment [9], in experiment [10], in [11], in experiment [12] and in experiment [13] was > 100 µM (inactive) each time. Further, the GI50 in experiment [14], in experiment [15], in [16], in experiment [17] and in [18] was > 100 µM (inactive) each time.
Consider `CC(=O)/C(=N\O)C(=O)NCc1ccccc1`, for which the GI50 in experiment [1] was > 100 µM (inactive); in experiment [3], 20.2 µM (inactive); in experiment [4] it was > 100 µM (inactive); in experiment [5], > 100 µM (inactive); in experiment [6], > 100 µM (inactive); in [8] it was > 100 µM (inactive). The GI50 in experiment [9], in experiment [10], in experiment [11], in experiment [12], in experiment [13] and in [14] was > 100 µM (inactive) each time. Moreover, the GI50 is > 100 µM (inactive) in experiment [15], > 100 µM (inactive) in experiment [16], > 100 µM (inactive) in experiment [17] and 58.9 µM (inactive) in experiment [18].
Regarding `CN(C)CCNC(=O)c1cccc2c1nc(-c1ccc(F)cc1)c1ccccc12`, the GI50 in [1] was 10.3 µM (inactive); in experiment [2], 5.81 µM (inactive); in experiment [3] it was 1.83 µM (inactive); in [4], 5.93 µM (inactive); in [5] it was 6.58 µM (inactive); in [6], 2.45 µM (inactive). The GI50 in experiment [7] was 5.94 µM (inactive); in experiment [9] it was 0.232 µM (active); in [10] it was 3.63 µM (inactive); in experiment [11] it was 7.76 µM (inactive); in experiment [12], 0.935 µM (active); in experiment [13], 2.15 µM (inactive). The GI50 in experiment [14] is 2.2 µM (inactive); in experiment [15], 2.77 µM (inactive); in experiment [16], 3.18 µM (inactive); in experiment [17], 3.63 µM (inactive); in [18], 3.21 µM (inactive).
With `NNC(=O)C(=O)N/N=C1/CCCC1C(=O)CCC(=O)Nc1ccc(Cl)cc1` (centres undefined), the GI50 in [1] is 24.4 µM (inactive); in experiment [2], 52.2 µM (inactive); in [4], > 100 µM (inactive); in [5] it was > 100 µM (inactive); in experiment [6] it was > 100 µM (inactive); in experiment [7] it was > 100 µM (inactive). Also, the GI50 was > 100 µM (inactive) in experiment [8]; > 100 µM (inactive) in experiment [9]; > 100 µM (inactive) in experiment [10]; > 100 µM (inactive) in experiment [11]; > 100 µM (inactive) in experiment [12]; 37.3 µM (inactive) in experiment [13]. Further, the GI50 in experiment [14], in experiment [15], in [16], in [17] and in [18] was > 100 µM (inactive) each time.
